# Measured values as given in the supplement of paper PMC10307832.
# Legend:
# Experiment in all cases: relative viability (nuclei count vs DMSO), 5 days (fraction); higher = more cells survive
# IMD-0354 + Olaparib = compound: O=C(Nc1cc(C(F)(F)F)cc(C(F)(F)F)c1)c1cc(Cl)ccc1O [IMD-0354] + O=C(c1cc(Cc2n[nH]c(=O)c3ccccc23)ccc1F)N1CCN(C(=O)C2CC2)CC1 [Olaparib] (partner 8 µM)
# Outline: (§1)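 For relative viability, nuclei counts in treated wells were divided by those in vehicle wells. Lung cancer cell lines had been pin-tool dosed in 1536-well plates the day after seeding and cultured for 5 days, then fixed and stained in one step (final 0.05% Triton X-100, 1% formaldehyde, 1 ug/ml Hoechst) and imaged at 4×. Doses were one drug alone or a fixed anchor-drug dose plus five library-drug doses (not always all listed) in √10 steps, and values are duplicate-plate medians.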
# IMD-0354 + Decitabine = compound: O=C(Nc1cc(C(F)(F)F)cc(C(F)(F)F)c1)c1cc(Cl)ccc1O [IMD-0354] + Nc1ncn([C@H]2C[C@H](O)[C@@H](CO)O2)c(=O)n1 [Decitabine] (partner 2 µM)
# Outline: as §1
# IMD-0354 + OSI-027 = compound: O=C(Nc1cc(C(F)(F)F)cc(C(F)(F)F)c1)c1cc(Cl)ccc1O [IMD-0354] + COc1cccc2cc(-c3nc([C@H]4CC[C@H](C(=O)O)CC4)n4ncnc(N)c34)[nH]c12 [OSI-027] (partner 0.5 µM)
# Outline: as §1
# CX-5461 + Pemetrexed = compound: Cc1cnc(CNC(=O)c2c(=O)c3ccc(N4CCCN(C)CC4)nc3n3c2sc2ccccc23)cn1 [CX-5461] + Nc1nc2[nH]cc(CCc3ccc(C(=O)N[C@@H](CCC(=O)O)C(=O)O)cc3)c2c(=O)[nH]1 [Pemetrexed] (partner 0.2 µM)
# Outline: as §1
Cell Line,relative viability (IMD-0354 + Olaparib; first compound 0.04 µM),relative viability (IMD-0354 + Olaparib; first compound 0.1265 µM),relative viability (IMD-0354 + Olaparib; first compound 0.4 µM),relative viability (IMD-0354 + Olaparib; first compound 1.265 µM),relative viability (IMD-0354 + Olaparib; first compound 4 µM),relative viability (IMD-0354 + Decitabine; first compound 0.04 µM),relative viability (IMD-0354 + Decitabine; first compound 0.1265 µM),relative viability (IMD-0354 + Decitabine; first compound 0.4 µM),relative viability (IMD-0354 + Decitabine; first compound 1.265 µM),relative viability (IMD-0354 + Decitabine; first compound 4 µM),relative viability (IMD-0354 + OSI-027; first compound 0.04 µM),relative viability (IMD-0354 + OSI-027; first compound 0.1265 µM),relative viability (IMD-0354 + OSI-027; first compound 0.4 µM),relative viability (IMD-0354 + OSI-027; first compound 1.265 µM),relative viability (IMD-0354 + OSI-027; first compound 4 µM),relative viability (CX-5461 + Pemetrexed; first compound 0.01 µM),relative viability (CX-5461 + Pemetrexed; first compound 0.03162 µM),relative viability (CX-5461 + Pemetrexed; first compound 0.1 µM),relative viability (CX-5461 + Pemetrexed; first compound 0.3162 µM),relative viability (CX-5461 + Pemetrexed; first compound 1 µM)
HCC-44,0.994,1.04,0.571,0.789,0.296,0.971,0.939,0.813,0.625,0.449,0.556,0.562,0.334,0.285,0.215,0.56,0.694,0.644,0.649,0.55
HCC-827,0.55,0.614,0.482,0.372,0.21,0.369,0.346,0.296,0.19,0.196,0.67,0.693,0.621,0.225,0.196,0.292,0.253,0.268,0.225,0.331
NCI-H1623,–,–,–,–,–,–,–,–,–,–,0.464,0.395,0.458,0.409,0.37,–,–,–,–,–
NCI-H2347,0.606,0.64,0.49,0.377,0.265,0.546,0.653,0.483,0.491,0.323,0.37,0.331,0.42,0.294,0.335,0.396,0.42,0.431,0.411,0.41
PC-14,0.223,0.276,0.269,0.0804,0.126,0.249,0.22,0.142,0.0934,0.0785,0.972,0.805,0.284,0.115,0.0708,0.134,0.134,0.118,0.157,0.113
NCI-H1651,0.189,0.196,0.177,0.177,0.124,0.667,0.638,0.528,0.156,0.147,0.667,0.667,0.495,0.199,0.0772,0.551,0.6,0.546,0.623,0.18
HARA,0.455,0.697,0.935,0.167,0.311,0.5,0.665,0.399,0.189,0.251,0.576,0.542,0.179,0.148,0.0924,0.204,0.272,0.27,0.208,0.253
NCI-H1650,0.827,0.82,0.463,0.325,0.145,0.378,0.455,0.285,0.203,0.129,0.704,0.491,0.362,0.189,0.259,0.377,0.477,0.336,0.35,0.241
NCI-H1793,0.856,0.797,0.399,0.213,0.251,0.583,0.438,0.335,0.098,0.262,0.319,0.293,0.161,0.165,0.131,1.17,1.21,0.92,0.706,0.802
